According to patent US20250034182A1, “PHOSPHOLIPID COMPOUNDS AND METHODS OF MAKING AND USING THE SAME” (priority 2021, published 2025):

system: CAN97-83-GFP1 (A2a) hMPV in H1-HeLa cells; experiment: hMPV H1-Hela EC50, anti-nucleoprotein ELISA (Example X); type: cell-based; conditions: human metapneumovirus, 96 h, read-out: hMPV H1-Hela EC50 (nM) (per Ex. X)
Description: The human metapneumoavirus (hMPV) anti-viral assay is an anti-nucleoprotein ELISA performed in infected H1-HeLa cells. H1-HeLa cells were maintained in Dulbecco's Modified Eagle's Medium with high glucose (Gibco, Cat #: 11995073) supplemented with 10% FBS (HyClone, Cat #: SH303396.03), 100 units/mL penicillin and 100 μg/mL streptomycin (Gibco, Cat #: 15140122). One day before infection, H1-HeLa cells were seeded into 96-well plates (Corning, Cat. #: 3903) at 0.1 mL/well at 1.5×10^5 cells/mL in Opti-MEM (Gibco, Cat #: 31985070) supplemented with 2% FBS, and were incubated at 37° C. in a 100% humid atmosphere containing 5% (v/v) CO2 overnight. On the next day, CAN97-83-GFP1 (A2a) hMPV was diluted in Opti-MEM medium containing 200 μg/mL CaCl2) and 2 μg/mL TPCK treated trypsin and distributed to the 96-well plates at 0.1 mL/well for an MOI=0.1. Test compounds were distributed to each well using a HP D300e digital dispenser with a final volume of 200 µL/well. After the plates were centrifuged at 700 g for one hour at room temperature, they were maintained in a humidified chamber at 37-C with 5% (v/v) CO2 for 96 hours. After the incubation, the medium was removed, and the plates were fixed with 0.1 mL/well 1% formaldehyde for 15 min at room temperature. The fixative was removed, the plates were air dried for 30-60 minutes, and then permeabilized with 0.1 mL/well 0.5% Triton X-100 in PBS for five minutes at room temperature. Following permeabilization, the plates were washed once with 0.1 mL/well blocking buffer consisting of 10% FBS (HyClone, Cat #: SH303396.03), 5% dry milk (AmericanBio, Cat #: AB10109-01000), and 0.1% Tween 20 (EMD Millipore, Cat #655204) in PBS. The plates were blocked with 0.1 mL/well blocking buffer for 60 minutes at 37° C. afterward. The blocking buffer was removed and 0.05 mL/well human metapneumovirus nucleocapsid antibody (Sigma, Cat #MAB80121) diluted 1:500 in Blocking buffer was added and incubated for two hours at 37-C. The plates were then washed with 0.2 mL/well 0.1% Tween 20/PBS five times, followed by addition of 0.05 mL/well of horseradish peroxidase (HRP) conjugated goat anti-mouse IgG antibody (Fisher Scientific, Cat #501077607) at 1:2000 dilution in the blocking buffer. After one-hour incubation at 37-C, plates were washed five times with 0.2 mL/well 0.1% tween 20 in PBS. The HRP signals were developed by adding 0.1 mL/well of TMB reagent (Thermo Scientific, Cat #: ENN301) and incubating at room until the positive control was apparent. At that point, the reaction was stopped by adding 0.1 mL/well TMB stop solution (SeraCare, Cat #: 5150-0021). The absorbance was measured at 450 nm with an EnVision plate reader. The relative absorbance was calculated by normalizing the absorbance of the compound-treated groups to that of the DMSO-treated groups (set as 100%). EC50 values were calculated using a nonlinear four parameter variable slope regression model.

SMILES | EC50
CCCCCCCCCCCCCCCCCCOC[C@H](COP(=O)(O)OC[C@@]1(C#N)O[C@@H](c2ccc3c(N)ncnn23)[C@H](O)[C@@H]1O)OCc1ccc(C#N)c(Cl)c1 [Compound 7, ((2R,3S,4R,5S)-5-(4-aminopyrrolo[2,1-f][1,2,4]triazin-7-yl)-2-cyano-3,4-dihydroxytetrahydrofuran-2-yl)methyl ((R)-2-((3-chloro-4-cyanobenzyl)oxy)-3-(octadecyloxy)propyl) hydrogen phosphate] | 358 nM
CCCCCCCCCCCCCCCCCCOC[C@H](COP(=O)(O)OC[C@@]1(C#N)O[C@@H](c2ccc3c(N)ncnn23)[C@H](O)[C@@H]1O)OCc1cccc(C#N)n1 [Compound 68, ((2R,3S,4R)-5-(4-aminopyrrolo[2,1-f][1,2,4]triazin-7-yl)-2-cyano-3,4-dihydroxytetrahydrofuran-2-yl)methyl ((R)-2-((6-cyanopyridin-2-yl)methoxy)-3-(octadecyloxy)propyl) hydrogen phosphate] | 214 nM
CCCCCCCCCCCCCCCCC[C@H](COP(=O)(O)OC[C@@]1(C#N)O[C@@H](c2ccc3c(N)ncnn23)[C@H](O)[C@@H]1O)OCc1cc(F)cc(C#N)c1 [Compound 36, ((2R,3S,4R,5S)-5-(4-aminopyrrolo[2,1-f][1,2,4]triazin-7-yl)-2-cyano-3,4-dihydroxytetrahydrofuran-2-yl)methyl ((R)-2-((3-cyano-5-fluorobenzyl)oxy)nonadecyl) hydrogen phosphate] | 1100 nM
